# Test system: diazepam receptor (fresh rat frontal cortex)
# Assay: radioreceptor assay: inhibition of ^3 H-diazepam binding (selectivity, drugs incubated with saliva)
# Settings: 10^-5 M, ^3 H-diazepam 0.50 nM
row,Structure (SMILES),inhibition of ^3 H-diazepam binding compared with saliva itself
1,CN(C)CCCN1c2ccccc2Sc2ccc(Cl)cc21 [chlorpromazine],failed to inhibit ^3 H-diazepam binding more than saliva itself
2,CNCCCN1c2ccccc2CCc2ccccc21 [desmethylimipramine],failed to inhibit ^3 H-diazepam binding more than saliva itself
3,C=CCN1CC[C@]23CCCC[C@H]2[C@H]1Cc1ccc(O)cc13 [levallorphan],failed to inhibit ^3 H-diazepam binding more than saliva itself
4,C#CCN(C)Cc1ccccc1 [pargyline],failed to inhibit ^3 H-diazepam binding more than saliva itself
5,O=c1[nH]c2ccccc2n1C1CCN(CCCC(c2ccc(F)cc2)c2ccc(F)cc2)CC1 [pimozide],failed to inhibit ^3 H-diazepam binding more than saliva itself

# Test system: benzodiazepine receptor (fresh rat frontal cortex)
# Assay: recovery of benzodiazepines pre-incubated with saliva, measured by benzodiazepine radioreceptor assay
# Assay type: binding
# Settings: 100 nM diazepam pre-incubated with control saliva
row,Structure (SMILES),maximum percentage lowering of binding vs drug added directly with no saliva present
1,CN1C(=O)CN=C(c2ccccc2)c2cc(Cl)ccc21 [diazepam],equivalent

# Source: patent US4431742A, “Radioreceptor assay for benzodiazepines in saliva” (The United States of America as represented by the …, priority 1981, dated 1984)
